Values quoted from earlier work as cited in US10882838B2, “Cannabinergic compounds and uses thereof” (Northeastern University, priority 2012, dated 2021).

What was measured:
[1] = background statement; cited from earlier work
[2] = background statement; cited from earlier work; remark: listed apart in the source
[3] = background statement, up to; cited from earlier work

Which “clog P” value [1] does the source give for `CCCCCc1cc(O)c2c(c1)OC(C)(C)[C@@H]1CCC(C)=C[C@@H]21` [Dronabinol] here?
The value was greater than 7.

What about the protein binding [2] of the same molecule?
The protein binding was no less than 97%.

And the “slow and erratic absorption” value [3]?
Its value is 2 to 6 h.

For `CCCCCCC(C)(C)c1cc(O)c2c(c1)OC(C)(C)C1CCC(=O)CC21` (centres unmarked) [Nabilone], which “clog P” value [1] is on record?
Its value is greater than 7.

And the protein binding [2]?
The protein binding was no less than 97%.
